From PMC11784839, “Monoaminergic neurotransmitters are bimodal effectors of tau aggregation” (Science Advances, 2025)

Target: tau (Homo sapiens, UniProt P10636)
Assay: MCE Phenols Library screening, tau biosensor cell seeding assay (AvZ)
Format: cell-based
Details: for Z repl 1 / Z Repl 2: Z score; for Z repl 1 / raw data 1: replicate 1; for Z Repl 2 / raw data 2: replicate 2; for AvZ (average z score of seeding, SDs from the mean level of seeding): 10 μM phenol in cell cultures, AD brain homogenate preincubated 16 hours, two biological replicates, positive = catalyzes seeding, negative = inhibits
[1] = average Z score of the two replicates, tau seeding
[2] = average Z score of two replicates, Phenols Library screen
[3] = average Z score of the two replicates, MCE Phenols Library screen
[4] = average puncta of the two replicates

tau, sequence (P10636 623-695 limits assumed): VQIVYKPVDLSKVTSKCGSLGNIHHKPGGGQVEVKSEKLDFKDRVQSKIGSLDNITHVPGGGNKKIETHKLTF

Z repl 1	Z Repl 2	av Z [1]	av puncta (average of raw data 1 and 2)	raw data 1 (puncta)	raw data 2 (puncta)	av Z [2]	av Z [3]	av puncta [4]	raw data 1 (raw puncta)	raw data 2 (raw puncta)	AvZ (average z score of seeding, SDs from the mean level of seeding)	av Z (average Z score of the two replicates, tau biosensor seeding, MCE Phenols Library screen)	SMILES
0.499	0.597	0.548	25744.8	32345.4	19144.3								O=C(O)[C@H]1O[C@@H](Oc2c(-c3ccc(O)cc3)oc3cc(O)cc(O)c3c2=O)[C@H](O)[C@@H](O)[C@@H]1O [Kaempferol 3-O-?-D-glucuronide]
0.421	-0.356		20180.4	31398.7	8962.19	0.032							O=c1c(O[C@@H]2O[C@H](CO[C@@H]3O[C@H](CO)[C@@H](O)[C@H](O)[C@H]3O)[C@@H](O)[C@H](O)[C@H]2O)c(-c2ccc(O)cc2)oc2cc(O)cc(O)c12 [Kaempferol 3-O-gentiobioside]
-0.587	0.035						-0.276	16225.3	19307.9	13142.7			O=c1c(O[C@@H]2O[C@H](CO)[C@@H](O)[C@H](O)[C@H]2O[C@@H]2O[C@H](CO)[C@@H](O)[C@H](O)[C@H]2O)c(-c2ccc(O)cc2)oc2cc(O)cc(O)c12 [Kaempferol 3-O-sophoroside]
-1.386	-0.619		7935.47	9710.86	6160.09		-1.002						C[C@@H]1O[C@@H](O[C@H]2[C@H](Oc3c(-c4ccc(O)cc4)oc4cc(O)cc(O)c4c3=O)O[C@H](CO)[C@@H](O)[C@@H]2O)[C@H](O)[C@H](O)[C@H]1O [Kaempferol 3-neohesperidoside]
-0.601	-1.001		10603.6	19130.8	2076.39		-0.801						C[C@H]1O[C@@H](O[C@H]2[C@H](Oc3c(-c4ccc(O)cc4)oc4cc(O)cc(O)c4c3=O)O[C@@H](CO)[C@H](O)[C@H]2O)[C@H](O)[C@@H](O)[C@@H]1O [Kaempferol-3-O-glucorhamnoside]
-0.004	-0.903						-0.454	14707.1	26297.7	3116.65			O=c1c(O)c(-c2ccc(O)cc2)oc2cc(O)cc(O)c12 [Kaempferol]
-0.156	-0.952			24479.5	2602.81		-0.554	13541.2					O=C(CCc1ccc(O)c(O)c1)NCCCNCCCCNCCCNC(=O)CCc1ccc(O)c(O)c1 [Kukoamine A]
-1.263	-0.72		8130.71	11188.8	5072.6		-0.992						NCCCN(CCCCNCCCNC(=O)CCc1ccc(O)c(O)c1)C(=O)CCc1ccc(O)c(O)c1 [Kukoamine B]
0.183	1.024	0.603	26122.8	28541	23704.6								C=C(C)[C@H](CC=C(C)C)Cc1c(O)cc(O)c2c1O[C@H](c1ccccc1O)CC2=O [Kushenol A]
0.564	-0.398		20816.6	33117.8	8515.32	0.083							C=C(C)[C@H](CC=C(C)C)Cc1c(O)cc(OC)c2c1O[C@H](c1ccc(O)cc1O)[C@@H](O)C2=O [Kushenol I]
0.063	0.629	0.346	23290.6	27102.4	19478.8								CC(C)=CCc1c(-c2ccc(O)cc2O)oc2c([C@H]3C=C(C)C[C@@H](c4ccc(O)cc4O)[C@@H]3C(=O)c3ccc(O)cc3O)c(O)cc(O)c2c1=O [Kuwanon G]
-0.22	0.532	0.156	21077.1	23703	18451.1								CC(C)=CCc1c(O)ccc(C(=O)[C@@H]2[C@@H](c3c(O)cc(O)c4c(=O)c(CC=C(C)C)c(-c5ccc(O)cc5O)oc34)C=C(C)C[C@H]2c2ccc(O)cc2O)c1O [Kuwanon H]
0.279	-0.269		19792.1	29696.2	9887.95						0.005		N[C@@H](Cc1c[nH]c2ccc(O)cc12)C(=O)O [L-5-Hydroxytryptophan]
-0.298	0.052		18045.6	22771.5	13319.6	-0.123							C=C(C)[C@H](CC=C(C)C)Cc1c(O)cc(O)c2c1O[C@H](c1ccc(O)cc1OC)CC2=O [Leachianone A]
1.449	1.251		34936.6	43747.9	26125.3						1.35		COc1cc(C(=O)OCCCCNC(=N)N)cc(OC)c1O [Leonurine]
-0.147	-0.356						-0.251	16774.6	24584.1	8965.07			Oc1cc(O)c2c(c1)O[C@H](c1ccc(O)c(O)c1)[C@@H](O)[C@H]2O [Leucocyanidin]
0.138	0.907	0.523	25231	28009.4	22452.6								COc1c(/C=C/C(=O)c2ccc(O)c(CC=C(C)C)c2)ccc(O)c1O [Licochalcone D]
1.035	0.525		28570.9	38768.9	18372.9							0.78	CC(C)=CCc1cc2c(=O)cc(-c3ccc(O)cc3)oc2cc1O [Licoflavone A]
-0.418	-0.081						-0.249	16619	21336.6	11901.3			COc1cc2c(cc1OC)[C@@H](Cc1ccc(O)c(Oc3cc4c(cc3OC)CCN(C)[C@@H]4Cc3ccc(O)cc3)c1)N(C)CC2 [Liensinine]
0.131	-0.067		19987.6	27927.2	12048	0.032							O=C1C[C@@H](c2ccc(O[C@@H]3O[C@H](CO)[C@@H](O)[C@H](O)[C@H]3O)cc2)Oc2cc(O)ccc21 [Liquiritin]
-1.337	-0.834		7079.11	10304.3	3853.96		-1.085						O=C(/C=C/c1ccc(O)c2c1[C@H](C(=O)O)[C@@H](c1ccc(O)c(O)c1)O2)O[C@H](Cc1ccc(O)c(O)c1)C(=O)O [Lithospermic acid]
-0.527	0.435		18718.9	20023.7	17414.1	-0.046							COc1ccc(CCC(=O)c2ccc(O)cc2)c(OC)c1 [Loureirin A]
1.015	0.248	0.631	26974.5	38536.8	15412.2								COc1cc(OC)c(CCC(=O)c2ccc(O)cc2)c(OC)c1 [Loureirin B]
0.331	-0.667		17984.5	30325.1	5643.99	-0.168							O=C1c2ccccc2C(=O)c2c1cc(O)c(CO)c2O [Lucidin]
-0.6	-0.013						-0.307	15884.9	19142	12627.8			O=C(O)[C@H]1O[C@@H](Oc2cc(O)c3c(=O)cc(-c4ccc(O)c(O)c4)oc3c2)[C@H](O)[C@@H](O)[C@@H]1O [Luteolin 7-O-glucuronide]
-0.224	0.189		19220	23659	14781.1	-0.018							O=C(CCCCCCCCc1ccc(O)c(O)c1)c1c(O)cccc1O [Malabaricone C]

SMILES	Z repl 1	Z Repl 2	av Z [1]	av puncta (average of raw data 1 and 2)	raw data 1 (puncta)	raw data 2 (puncta)	av Z [2]	av Z [3]	av puncta [4]	raw data 1 (raw puncta)	raw data 2 (raw puncta)	AvZ (average z score of seeding, SDs from the mean level of seeding)	av Z (average Z score of the two replicates, tau biosensor seeding, MCE Phenols Library screen)
OC[C@H]1O[C@@H](Oc2cc3c(O)cc(O)cc3[o+]c2-c2ccc(O)c(O)c2)[C@H](O)[C@@H](O)[C@@H]1O.[Cl-] [Kuromanin (chloride)]	-0.084	-0.888			25345.8	3284.04		-0.486	14314.9				
COc1cc2c(cc1O)-c1c(OC)c(O)cc3c1[C@H](C2)NCC3 [Laetanine]	-0.508	-0.181						-0.344	15544.8	20251.6	10838.1		
CC[C@@H](C(=O)[C@@H](C)[C@@H](O)[C@H](C)CCc1ccc(C)c(O)c1C(=O)O)[C@H]1O[C@](CC)([C@H]2CC[C@](O)(CC)[C@H](C)O2)C[C@@H]1C [Lasalocid]	0.41	-0.218		20851.6	31268.6	10434.5	0.096						
Oc1cc(O)c2ccc(-c3ccc(O)c(O)c3)[o+]c2c1.[Cl-] [Luteolinidin (chloride)]	-0.952	-1.154		7678.85	14921.6	436.094		-1.053					
C=CCc1ccc(O)c(-c2cc(CC=C)ccc2O)c1 [Magnolol]	0.295	1.074	0.685	27065.9	29891.7	24240.1							
